Laboratory results taken from US12540141B2, “Spiropyrrolidine derived antiviral agents” (priority 2020, dated 2026).

Target: SARS-CoV-2 3CL-protease (Severe acute respiratory syndrome coronavirus 2, UniProt P0DTD1)
Test: SARS-CoV-2 3C-Like (3CL) Protease Fluorescence Assay (FRET)
Assay type: biochemical
Conditions: SARS-CoV-2 3CL-protease 10 nM, 30 min preincubation at RT, substrate 40 μM

SMILES: CN(C(=O)Cc1ccccn1)[C@@H](CC(C)(C)F)C(=O)N1C[C@]2(C[C@H]1C#N)C(=O)Nc1ccc(Cl)cc12 [Example 483]
- IC50: < 0.1 µM

SMILES: Cc1ccc2cc(C(=O)N(C)[C@@H](CC(C)C)C(=O)N3C[C@]4(C[C@H]3C#N)C(=O)Nc3ccccc34)[nH]c2n1 [Example 465]
- IC50: < 0.1 µM

SMILES: CC(C)C[C@@H](C(=O)N1C[C@]2(C[C@H]1C#N)C(=O)Nc1ccccc12)N(C)C(=O)c1cn(-c2ccc(F)cc2)nn1 [Example 283]
- IC50: < 0.1 µM

SMILES: N#C[C@@H]1C[C@@]2(CN1C(=O)[C@H](CC1CC1)NC(=O)c1c(Cl)cccc1Cl)C(=O)Nc1ccc(Cl)cc12 [Example 525]
- IC50: < 0.1 µM

SMILES: [2H]C([2H])([2H])N(C(=O)c1cn(C2CC2)nn1)[C@@H](CC(C)(C)C)C(=O)N1C[C@]2(C[C@H]1C#N)C(=O)Nc1ccccc12 [Example 378]
- IC50: < 0.1 µM

SMILES: CN(C(=O)Cc1cccnc1)[C@@H](CC(C)(C)F)C(=O)N1C[C@]2(C[C@H]1C#N)C(=O)Nc1ccc(Cl)cc12 [Example 476]
- IC50: < 0.1 µM

SMILES: CC(C)(C)C[C@H](NC(=O)c1cnn(CC(F)(F)F)c1)C(=O)N1C[C@]2(C[C@H]1C#N)C(=O)Nc1ccccc12 [Example 144]
- IC50: < 0.1 µM

SMILES: CC(C)C[C@@H](C(=O)N1C[C@]2(C[C@H]1C#N)C(=O)Nc1ccccc12)N(C)C(=O)c1cc2sccc2[nH]1 [Example 209]
- IC50: < 0.1 µM

SMILES: CC(C)C[C@@H](C(=O)N1C[C@]2(C[C@H]1C#N)C(=O)Nc1ccc(-c3cccnc3)cc12)N(C)C(=O)c1cc2c(F)cc(F)cc2[nH]1 [Example 506]
- IC50: < 0.1 µM

SMILES: CN(C(=O)c1cc2c(F)cc(F)c(F)c2[nH]1)[C@@H](CCC(C)(C)C)C(=O)N1C[C@]2(C[C@H]1C#N)C(=O)Nc1ccccc12 [Example 412]
- IC50: < 0.1 µM

SMILES: CCCC[C@@H](C(=O)N1C[C@]2(C[C@H]1C#N)C(=O)Nc1ccccc12)N(C)C(=O)c1cnn(C(C)(C)C)c1 [Example 408]
- IC50: < 0.1 µM

SMILES: C[C@@H](C(=O)N(C)[C@@H](CC(C)(C)C)C(=O)N1C[C@]2(C[C@H]1C#N)C(=O)Nc1ccccc12)c1cnn(C)c1 [Example 372]
- IC50: < 0.1 µM

SMILES: CC(C)C[C@@H](C(=O)N1C[C@]2(C[C@H]1C#N)C(=O)Nc1ccccc12)N(C)C(=O)c1ccc2c(F)cc(F)cc2n1 [Example 290]
- IC50: 0.1 to 1 µM

SMILES: CCCC[C@H](NC(=O)c1cnn(C(C)(C)C)c1)C(=O)N1C[C@]2(C[C@H]1C#N)C(=O)Nc1ccccc12 [Example 131]
- IC50: < 0.1 µM

SMILES: CC(C)C[C@@H](C(=O)N1C[C@]2(C[C@H]1C#N)C(=O)Nc1ccccc12)N(C)C(=O)c1ccnn1C [Example 203]
- IC50: < 0.1 µM

SMILES: CC(C)C[C@@H](C(=O)N1C[C@]2(C[C@H]1C#N)C(=O)Nc1ccccc12)N(C)C(=O)c1nc2c(F)c(F)c(F)cc2[nH]1 [Example 273]
- IC50: 0.1 to 1 µM

SMILES: CC(C)C[C@@H](C(=O)N1C[C@]2(C[C@H]1C#N)C(=O)Nc1ccccc12)N(C)C(=O)c1cc(F)cc(Cl)c1 [Example 173]
- IC50: < 0.1 µM

SMILES: CC(C)C[C@@H](C(=O)N1C[C@]2(C[C@H]1C#N)C(=O)Nc1ccccc12)N(C)C(=O)CCN [Example 367]
- IC50: < 0.1 µM

SMILES: N#C[C@@H]1C[C@@]2(CN1C(=O)[C@H](CC1CC1)NC(=O)c1cc3c(F)cc(F)cc3[nH]1)C(=O)Nc1ccc(Cl)cc12 [Example 453]
- IC50: < 0.1 µM

SMILES: CN(C(=O)Cc1cccc(C(F)(F)F)n1)[C@@H](CC(C)(C)F)C(=O)N1C[C@]2(C[C@H]1C#N)C(=O)Nc1ccc(Cl)cc12 [Example 485]
- IC50: 0.1 to 1 µM

SMILES: CC(C)C[C@@H](C(=O)N1C[C@]2(C[C@H]1C#N)C(=O)Nc1ccc(Br)cc12)N(C)C(=O)c1cc2c(F)cc(F)cc2[nH]1 [Example 508]
- IC50: < 0.1 µM

SMILES: CC(C)(C)C[C@H](NC(=O)c1cnn(-c2ccc(C(F)(F)F)cc2)c1)C(=O)N1C[C@]2(C[C@H]1C#N)C(=O)Nc1ccccc12 [Example 145]
- IC50: < 0.1 µM

SMILES: COc1ccc(C(=O)N(C)[C@@H](CC(C)C)C(=O)N2C[C@]3(C[C@H]2C#N)C(=O)Nc2ccccc23)cc1C(F)(F)F [Example 181]
- IC50: < 0.1 µM

SMILES: COc1ccc(Cl)cc1C(=O)N(C)[C@@H](CC(C)C)C(=O)N1C[C@]2(C[C@H]1C#N)C(=O)Nc1ccccc12 [Example 170]
- IC50: < 0.1 µM

SMILES: CC(C)C[C@@H](C(=O)N1C[C@]2(C[C@H]1C#N)C(=O)Nc1ccccc12)N(C)C(=O)c1cc(OC(F)(F)F)c2ncccc2c1 [Example 322]
- IC50: < 0.1 µM

SMILES: C=C(C)c1ccc2c(c1)[C@@]1(C[C@@H](C#N)N(C(=O)[C@H](CC(C)C)N(C)C(=O)c3cc4c(F)cc(F)cc4[nH]3)C1)C(=O)N2 [Example 498, N—((S)-1-((3R,5′S)-5′-cyano-2-oxo-5-(prop-1-en-2-yl)spiro[indoline-3,3′-pyrrolidin]-1′-yl)-4-methyl-1-oxopentan-2-yl)-4,6-difluoro-N-methyl-1H-indole-2-carboxamide]
- IC50: < 0.1 µM

SMILES: CC(C)C[C@@H](C(=O)N1C[C@]2(C[C@H]1C#N)C(=O)Nc1ccccc12)N(C)C(=O)c1ccc2ccccc2c1 [Example 219]
- IC50: 0.1 to 1 µM

SMILES: CN(C(=O)OCc1ccccc1)[C@@H](Cc1ccc(OCc2ccccc2)cc1)C(=O)N1C[C@]2(C[C@H]1C#N)C(=O)Nc1ccccc12 [Example 387]
- IC50: > 1 µM

SMILES: CC(C)(C)C[C@H](NC(=O)c1cn(CC(F)(F)F)nn1)C(=O)N1C[C@]2(C[C@H]1C#N)C(=O)Nc1ccccc12 [Example 143]
- IC50: < 0.1 µM

SMILES: CCCC[C@H](NC(=O)[C@@H](O)c1ccc(F)cc1)C(=O)N1C[C@]2(C[C@H]1C#N)C(=O)Nc1ccccc12 [Example 418]
- IC50: < 0.1 µM

SMILES: CC(C)C[C@@H](C(=O)N1C[C@]2(C[C@H]1C#N)C(=O)Nc1ccccc12)N(C)C(=O)c1c(Cl)cc(Cl)cc1Cl [Example 185]
- IC50: < 0.1 µM

SMILES: CC(C)C[C@@H](C(=O)N1C[C@]2(C[C@H]1C#N)C(=O)Nc1ccccc12)N(C)C(=O)c1ccc(F)c(-c2ccccc2)c1 [Example 272]
- IC50: 0.1 to 1 µM

SMILES: Cc1cccc(C)c1NC(=O)N[C@@H](CC(C)(C)C)C(=O)N1C[C@]2(C[C@H]1C#N)C(=O)Nc1ccccc12 [Example 438]
- IC50: 0.1 to 1 µM

SMILES: CC(C)C[C@@H](C(=O)N1C[C@]2(C[C@H]1C(=O)CO)C(=O)Nc1ccccc12)N(C)C(=O)c1cc2c(F)cc(F)cc2[nH]1 [Example 157]
- IC50: > 1 µM

SMILES: CC(C)C[C@@H](C(=O)N1C[C@]2(C[C@H]1C#N)C(=O)Nc1ccccc12)N(C)C(=O)c1cc(-c2ccccc2)ccc1Cl [Example 262]
- IC50: 0.1 to 1 µM

SMILES: CC(C)(C)C[C@H](NC(=O)Nc1ccc(F)cc1F)C(=O)N1C[C@]2(C[C@H]1C#N)C(=O)Nc1ccccc12 [Example 436]
- IC50: 0.1 to 1 µM

SMILES: [2H]C([2H])([2H])N(C(=O)c1nnn2ccccc12)[C@@H](CCCC)C(=O)N1C[C@]2(C[C@H]1C#N)C(=O)Nc1ccccc12 [Example 397]
- IC50: < 0.1 µM

SMILES: CC(C)C[C@@H](C(=O)N1C[C@]2(C[C@H]1C#N)C(=O)Nc1ccc(N=[N+]=[N-])cc12)N(C)C(=O)c1cc2c(F)cc(F)cc2[nH]1 [Example 503, N—((S)-1-((3R,5′S)-5-azido-5′-cyano-2-oxospiro[indoline-3,3′-pyrrolidin]-1′-yl)-4-methyl-1-oxopentan-2-yl)-4,6-difluoro-N-methyl-1H-indole-2-carboxamide]
- IC50: < 0.1 µM

SMILES: COc1ccc(C(=O)N(C)[C@@H](CC(C)C)C(=O)N2C[C@]3(C[C@H]2C#N)C(=O)Nc2ccccc23)cc1F [Example 182]
- IC50: < 0.1 µM

SMILES: [2H]C([2H])([2H])N(C(=O)c1cc2c(F)cc(F)cc2[nH]1)[C@@H](CC(C)(C)F)C(=O)N1C[C@]2(C[C@H]1C#N)C(=O)Nc1ccc(Cl)cc12 [Example 454]
- IC50: < 0.1 µM

SMILES: CC(C)C[C@@H](C(=O)N1C[C@]2(C[C@H]1C#N)C(=O)Nc1ccccc12)N(C)C(=O)c1ccc(Cl)c(Cl)c1 [Example 166]
- IC50: < 0.1 µM

SMILES: CC(C)C[C@@H](C(=O)N1C[C@]2(C[C@H]1C#N)C(=O)Nc1ccccc12)N(C)C(=O)c1cc2cc(C(F)(F)F)ccc2[nH]1 [Example 326]
- IC50: < 0.1 µM

SMILES: CC(C)C[C@@H](C(=O)N1C[C@]2(C[C@H]1C#N)C(=O)Nc1ccccc12)N(C)C(=O)C[C@H](Cc1cc(F)c(F)cc1F)NC(=O)OC(C)(C)C [Example 291]
- IC50: < 0.1 µM

SMILES: CC(C)C[C@@H](C(=O)N1C[C@]2(C[C@H]1C#N)C(=O)Nc1ccccc12)N(C)C(=O)c1cccc2ccncc12 [Example 293]
- IC50: < 0.1 µM

SMILES: CC(C)C[C@@H](C(=O)N1C[C@]2(C[C@H]1C#N)C(=O)Nc1ccccc12)N(C)C(=O)c1c(Cl)cc(F)cc1Cl [Example 186]
- IC50: < 0.1 µM

SMILES: CC(C)C[C@@H](C(=O)N1C[C@]2(C[C@H]1C#N)C(=O)Nc1ccccc12)N(C)C(=O)c1ccc(F)cn1 [Example 198]
- IC50: 0.1 to 1 µM

SMILES: COC(=O)c1ccc2c(c1)[C@@]1(C[C@@H](C#N)N(C(=O)[C@H](CC(C)C)N(C)C(=O)c3cc4c(F)cc(F)cc4[nH]3)C1)C(=O)N2 [Example 501, methyl (3R,5′S)-5′-cyano-1′-(N-(4,6-difluoro-1H-indole-2-carbonyl)-N-methyl-L-leucyl)-2-oxospiro[indoline-3,3′-pyrrolidine]-5-carboxylate]
- IC50: < 0.1 µM

SMILES: [2H]C([2H])([2H])N(C(=O)C1(c2ccncc2)CC1)[C@@H](CC(C)(C)F)C(=O)N1C[C@]2(C[C@H]1C#N)C(=O)Nc1ccc(Cl)cc12 [Example 475]
- IC50: < 0.1 µM

SMILES: CC(C)C[C@@H](C(=O)N1C[C@]2(C[C@H]1C#N)C(=O)Nc1ccccc12)N(C)C(=O)c1cc(Cl)cc(Cl)c1 [Example 172]
- IC50: < 0.1 µM

SMILES: CC(C)C[C@@H](C(=O)N1C[C@]2(C[C@H]1C#N)C(=O)Nc1ccccc12)N(C)C(=O)c1cnn(-c2ccccc2C(F)(F)F)c1 [Example 353]
- IC50: < 0.1 µM

SMILES: CC(C)C[C@@H](C(=O)N1C[C@]2(C[C@H]1C#N)C(=O)Nc1ccccc12)N(C)C(=O)Cc1ccccc1 [Example 226]
- IC50: < 0.1 µM

SMILES: CN(C(=O)c1cn(C2CC2)nn1)[C@@H](Cc1ccccc1)C(=O)N1C[C@]2(C[C@H]1C#N)C(=O)Nc1ccccc12 [Example 359]
- IC50: < 0.1 µM

SMILES: CC(C)C[C@@H](C(=O)N1C[C@]2(C[C@H]1C#N)C(=O)Nc1ccc(-c3ccoc3)cc12)N(C)C(=O)c1cc2c(F)cc(F)cc2[nH]1 [Example 512]
- IC50: < 0.1 µM

SMILES: COc1ccccc1CN(C(=O)C(F)(F)F)[C@@H](CC(C)C)C(=O)N1C[C@]2(C[C@H]1C#N)C(=O)Nc1ccccc12 [Example 431]
- IC50: > 1 µM

SMILES: CC(C)C[C@@H](C(=O)N1C[C@]2(C[C@H]1C#N)C(=O)Nc1ccccc12)N(C)C(=O)CCc1ccccc1 [Example 227]
- IC50: < 0.1 µM
